For this experiment, the target named is DevR (also known as DosR or Rv3133c) dimerization (Mycobacterium tuberculosis, UniProt P9WMF9). The experiment can be described thus: M-PFC Alamar Blue screen for inhibitors of DevR dimerization. The format is cell-based. Particulars: for effect on DevR dimerization: M-PFC Alamar Blue assay in Msm, titration (FIG. 11); for concentration with the most dramatic effect on DevR dimerization: titration curves, FIG. 11.
DevR (also known as DosR or Rv3133c) dimerization, sequence (P9WMF9 whole entry, looked up): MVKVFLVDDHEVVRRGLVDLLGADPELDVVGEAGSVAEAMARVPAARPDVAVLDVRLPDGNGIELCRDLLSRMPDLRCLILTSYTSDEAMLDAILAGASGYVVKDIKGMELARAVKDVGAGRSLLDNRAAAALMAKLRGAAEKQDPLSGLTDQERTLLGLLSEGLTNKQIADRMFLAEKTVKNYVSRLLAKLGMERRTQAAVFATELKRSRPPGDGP

Consider `Cl.Cn1c(=N)n(CC(=O)c2cc(C(C)(C)C)c(O)c(C(C)(C)C)c2)c2ccccc21` [1-(3,5-di-tert-butyl-4-hydroxyphenyl)-2-(2-imino-3-methyl-2,3-dihydro-1H-benzimidazol-1-yl)ethanone hydrochloride], for which the “effect on DevR dimerization” value is on record as “inhibitory effect against DevR dimerization at low concentrations” and the “concentration with the most dramatic effect on DevR dimerization” value amounted to 12.5 µg/mL.

With `CC(=O)NS(=O)(=O)c1ccc(NC(=O)CCc2ccccc2)cc1` [N-(4-[(acetylamino)sulfonyl]phenyl)-3-phenylpropanamide], the “effect on DevR dimerization” value was “inhibitory effect against DevR dimerization at low concentrations” and the “concentration with the most dramatic effect on DevR dimerization” value is 12.5 µg/mL.

These data come from patent US8603751B2, “Mycobacterial disease detection, treatment, and drug discovery” (priority 2006, dated 2013).
